The text below walks through data of patent US20250129103A1, “METHODS FOR TREATMENT OF CANCER” (Frontier Medicines Corporation, priority 2022, published 2025).

Assay [1] addresses KRAS G12C (GMPPNP-loaded) and cRAF (Ras-binding domain) interaction (Homo sapiens (Human), UniProt P01116, C118S/C51S/C80L/G12C). Kind of assay: Inhibition of KRAS G12C and cRAF binding (AlphaScreen). Conditions: KRAS G12C loaded with GMPPNP, cRaf RBD, 2 hours preincubation; read-out: Raf-1 RBD K-Ras IC50. Summed up: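 AlphaScreen readout (680 nm excitation, 570 nm emission) of RBD binding after a 60-90 min bead step at room temperature. This step follows 2 h compound exposure of GMPPNP-preloaded KRAS G12C in Hepes pH 7.4 buffer with MgCl2 and 10 μM GMPPNP.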
(In general: In Alpha technology, singlet oxygen from a donor bead excites a nearby acceptor bead.)

Assay [2] addresses KRAS G12C (GMPPNP-loaded) and PI3Ka (Ras-binding domain) interaction (Homo sapiens (Human), UniProt P01116, C118S/C51S/C80L/G12C). Put plainly: Inhibition of KRAS G12C and PI3Ka binding (AlphaScreen). Conditions: KRAS G12C loaded with GMPPNP, PI3Ka RBD, 2 hours preincubation; read-out: PI3K RBD K-Ras IC50. As to the method: The AlphaScreen technology was used to determine IC50S for compound inhibition of KRAS G12C (present as the Cys-light (C51S, C80L and C118S), truncated version comprising amino acids 1-169) and PI3Ka interaction. Compounds were diluted in 100% DMSO and each compound concentration was spotted at 200 nl/well onto low volume, white 384 well plates. The KRAS G12C contained a biotin-AviTag and the PI3Ka, as Ras-binding domain (amino acids 157-300, RBD), was His-tagged. KRAS G12C was preloaded with the GTP analogue Guanosine 5′-[β,γ-imido]triphosphate (GMPPNP). The KRAS G12C was diluted in 25 mM Hepes, pH 7.4, 150 mM NaCl, 5 mM MgCl2, 0.01% TritonX-100 and 10 μM GMPPNP and added at 10 ul/well to compound-spotted plates resulting in a DMSO concentration of 2%. Plates were incubated for 2 hours. A mixture of RBD and the AlphaScreen streptavidin donor and nickel chelate acceptor beads diluted in 25 mM Hepes, pH 7.4, 150 mM NaCl, 5 mM MgCl2, 0.01% TritonX-100 and 2% DMSO was then added at 10 ul/well and incubated for 60-90 minutes before the samples were read for emission at 570 nm after excitation of the donor beads at 680 nm. All incubations were performed at room temperature. The final top compound concentration was 50 μM with 1:3 titrations for 10-point dose response curves. Final assay conditions were 1.5 nM KRAS G12C, 100 nM RBD, 1.25 ug/ml of AlphaScreen donor beads and 10 μg/ml AlphaLISA acceptor beads. IC50s were determined using nonlinear regression fit of [inhibitor] vs. response (4 parameters). […]

SMILES strings stand for the structures.

KRAS G12C (GMPPNP-loaded) and PI3Ka (Ras-binding domain) interaction, sequence (P01116 other isoform, or with tags, fused parts or gaps G12C/C51S/C80L/C118S): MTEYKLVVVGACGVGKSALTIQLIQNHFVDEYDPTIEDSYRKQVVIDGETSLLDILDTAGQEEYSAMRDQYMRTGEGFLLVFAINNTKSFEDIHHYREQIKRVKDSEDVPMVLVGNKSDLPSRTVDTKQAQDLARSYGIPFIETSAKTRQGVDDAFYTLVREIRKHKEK
KRAS G12C (GMPPNP-loaded) and cRAF (Ras-binding domain) interaction, sequence (P01116 other isoform, or with tags, fused parts or gaps G12C/C51S/C80L/C118S): as above

As usually defined, the IC50 is the point on the concentration scale where inhibition reaches its midpoint. Consider `N#CC[C@H]1CN(c2nc(OC[C@@]34CCCN3C[C@H](F)C4)nc3c(F)c(-c4cccc5cccc(Cl)c45)ncc23)CCN1C(=O)/C=C/CN1C[C@H]2C[C@@H]1CO2` [Compound 181], for which the IC50 in assay [1] and in assay [2] was below 0.01 µM each time.

For the compound `Cc1nccc(/C=C/C(=O)N2CCN(c3nc(OC[C@@]45CCCN4C[C@H](F)C5)nc4c(F)c(-c5cccc6ccc(F)c(F)c56)ncc34)C[C@@H]2CC#N)n1` [Compound 211], the IC50 in assay [1] and in assay [2] was below 0.01 µM throughout.

With `CO[C@@H]1CCN(C/C=C/C(=O)N2CCN(c3nc(OC[C@@]45CCCN4C[C@H](F)C5)nc4c(F)c(-c5cccc6ccc(F)c(F)c56)ncc34)C[C@@H]2CC#N)C1` [Compound 216], the concentration for half-maximal inhibition (IC50) in assay [1] and in assay [2] was below 0.01 µM each time.

Consider `N#CC[C@H]1CN(c2nc(OC[C@@]34CCCN3C[C@H](F)C4)nc3c(F)c(-c4cccc5cccc(F)c45)ncc23)CCN1C(=O)/C=C/CN1C[C@@H]2C[C@H]1CO2` [Compound 219], for which the half-maximal inhibitory concentration (IC50) in assay [1] and in assay [2] was below 0.01 µM in each case.

Regarding `N#CC[C@H]1CN(c2nc(OC[C@@]34CCCN3C[C@H](F)C4)nc3c(F)c(-c4cccc5cccc(F)c45)ncc23)CCN1C(=O)/C=C/CN1C[C@H]2C[C@@H]1CO2` [Compound 220], the IC50 in assay [1] and in assay [2] was below 0.01 µM each time.

For `CCc1c(F)ccc2cccc(-c3ncc4c(N5CCN(C(=O)/C=C/c6ccnc(C)n6)[C@@H](CC#N)C5)nc(OC[C@@]56CCCN5C[C@H](F)C6)nc4c3F)c12` [Compound 227], the half-inhibitory concentration (IC50) in assay [1] and in assay [2] was below 0.01 µM in each case.

In the case of `N#CC[C@H]1CN(c2nc(OC[C@@]34CCCN3C[C@H](F)C4)nc3c(F)c(-c4cccc(Cl)c4C4CC4)ncc23)CCN1C(=O)/C=C/CN1CCOCC1` [Compound 243], the 50% inhibitory concentration (IC50) in assay [1] and in assay [2] was below 0.01 µM in each case.

With `N#CC[C@H]1CN(c2nc(OC[C@@]34CCCN3C[C@H](F)C4)nc3c(F)c(-c4cccc(Cl)c4C4CC4)ncc23)CCN1C(=O)/C=C/CN1CC[C@H](F)C1` [Compound 283], the 50% inhibitory concentration (IC50) in assay [1] and in assay [2] was below 0.01 µM throughout.

Consider `CN(C/C=C/C(=O)N1CCN(c2nc(OCC34CCCN3CCC4)nc3c2CCN(c2cccc4cccc(Cl)c24)C3)C[C@@H]1CC#N)CC1COC1` [Compound 318], for which the IC50 in assay [1] and in assay [2] was below 0.01 µM throughout.

`Cc1noc(/C=C/C(=O)N2CCN(c3nc(OC[C@@]45CCCN4C[C@H](F)C5)nc4c3CCN(c3cccc5ccc(F)c(Cl)c35)C4)C[C@@H]2CC#N)n1` [Example 3, 2-((S)-4-(7-(8-chloro-7-fluoronaphthalen-1-yl)-2-(((2R,7aS)-2-fluorotetrahydro-1H-pyrrolizin-7a(5H)-yl)methoxy)-5,6,7,8-tetrahydropyrido[3,4-d]pyrimidin-4-yl)-1-((E)-3-(3-methyl-1,2,4-oxadiazol-5-yl)acryloyl)piperazin-2-yl)acetonitrile]: the half-inhibitory concentration (IC50) in assay [1] was 0.01 to 0.1 µM; in assay [2] it was below 0.01 µM.

Consider `N#CC[C@H]1CN(c2nc(OCC34CCCN3CCC4)nc3c2CCN(c2cccc4cccc(Cl)c24)C3)CCN1C(=O)/C=C/CN1CCOCC1` [Example 11, (S,E)-2-(4-(7-(8-chloronaphthalen-1-yl)-2-((hexahydro-1H-pyrrolizin-7a-yl)methoxy)-5,6,7,8-tetrahydropyrido[3,4-d]pyrimidin-4-yl)-1-(4-morpholinobut-2-enoyl)piperazin-2-yl)acetonitrile], for which the half-maximal inhibitory concentration (IC50) in assay [1] is below 0.01 µM; in assay [2], 0.01 to 0.1 µM.

For the compound `CC(F)(F)c1noc(/C=C/C(=O)N2CCN(c3nc(OC[C@@]45CCCN4C[C@H](F)C5)nc4c3CCN(c3cccc5cccc(Cl)c35)C4)C[C@@H]2CC#N)n1` [Example 12, 2-((S)-4-(7-(8-chloronaphthalen-1-yl)-2-(((2R,7aS)-2-fluorohexahydro-1H-pyrrolizin-7a-yl)methoxy)-5,6,7,8-tetrahydropyrido[3,4-d]pyrimidin-4-yl)-1-((E)-3-(3-(1,1-difluoroethyl)-1,2,4-oxadiazol-5-yl)acryloyl)piperazin-2-yl)acetonitrile], the IC50 in assay [1] and in assay [2] was below 0.01 µM each time.

As to `CC(F)(F)c1noc(/C=C/C(=O)N2CCN(c3nc(OCC45CCCN4CCC5)nc4c(F)c(-c5cccc6cccc(Cl)c56)ncc34)C[C@@H]2CC#N)n1` [Example 13, (S,E)-2-(4-(7-(8-chloronaphthalen-1-yl)-8-fluoro-2-((tetrahydro-1H-pyrrolizin-7a(5H)-yl)methoxy)pyrido[4,3-d]pyrimidin-4-yl)-1-(3-(3-(1,1-difluoroethyl)-1,2,4-oxadiazol-5-yl)acryloyl)piperazin-2-yl)acetonitrile], the IC50 in assay [1] and in assay [2] was 0.01 to 0.1 µM each time.

As for `Cc1cc(/C=C/C(=O)N2CCN(c3nc(OC[C@@]45CCCN4C[C@H](F)C5)nc4c(F)c(-c5cccc6cccc(Cl)c56)ncc34)C[C@@H]2CC#N)nc(C)n1` [Example 69, 2-((S)-4-(7-(8-chloronaphthalen-1-yl)-8-fluoro-2-(((2R,7aS)-2-fluorotetrahydro-1H-pyrrolizin-7a(5H)-yl)methoxy)pyrido[4,3-d]pyrimidin-4-yl)-1-((E)-3-(2,6-dimethylpyrimidin-4-yl)acryloyl)piperazin-2-yl)acetonitrile], the half-inhibitory concentration (IC50) in assay [1] and in assay [2] was below 0.01 µM throughout.

For the compound `C[C@@H]1CN(C/C=C/C(=O)N2CCN(c3nc(OC[C@@]45CCCN4C[C@H](F)C5)nc4c(F)c(-c5cccc6ccc(F)c(Cl)c56)ncc34)C[C@@H]2CC#N)C[C@H](C)O1` [Example 73, 2-((S)-4-(7-(8-chloro-7-fluoronaphthalen-1-yl)-8-fluoro-2-(((2R,7aS)-2-fluorotetrahydro-1H-pyrrolizin-7a(5H)-yl)methoxy)pyrido[4,3-d]pyrimidin-4-yl)-1-((E)-4-((2S,6R)-2,6-dimethylmorpholino)but-2-enoyl)piperazin-2-yl)acetonitrile], the IC50 in assay [1] and in assay [2] was below 0.01 µM throughout.

Regarding `C[C@@H]1CN(C/C=C/C(=O)N2CCN(c3nc(OC[C@@]45CCCN4C[C@H](F)C5)nc4c(F)c(-c5cccc6ccc(F)c(Cl)c56)ncc34)C[C@@H]2CC#N)C[C@@H](C)O1` [Example 74, 2-((S)-4-(7-(8-chloro-7-fluoronaphthalen-1-yl)-8-fluoro-2-(((2R,7aS)-2-fluorotetrahydro-1H-pyrrolizin-7a(5H)-yl)methoxy)pyrido[4,3-d]pyrimidin-4-yl)-1-((E)-4-((2R,6R)-2,6-dimethylmorpholino)but-2-enoyl)piperazin-2-yl)acetonitrile], the half-inhibitory concentration (IC50) in assay [1] and in assay [2] was below 0.01 µM in each case.

`C[C@H]1CN(C/C=C/C(=O)N2CCN(c3nc(OC[C@@]45CCCN4C[C@H](F)C5)nc4c(F)c(-c5cccc6ccc(F)c(Cl)c56)ncc34)C[C@@H]2CC#N)C[C@H](C)O1` [Example 75, 2-((S)-4-(7-(8-chloro-7-fluoronaphthalen-1-yl)-8-fluoro-2-(((2R,7aS)-2-fluorotetrahydro-1H-pyrrolizin-7a(5H)-yl)methoxy)pyrido[4,3-d]pyrimidin-4-yl)-1-((E)-4-((2S,6S)-2,6-dimethylmorpholino)but-2-enoyl)piperazin-2-yl)acetonitrile]: the IC50 in assay [1] and in assay [2] was below 0.01 µM throughout.

Consider `N#CC[C@H]1CN(c2nc(OC[C@@]34CCCN3C[C@H](F)C4)nc3c(F)c(-c4cccc5ccc(F)c(Cl)c45)ncc23)CCN1C(=O)/C=C/CN1C2COCC1C2` [Example 76, 2-((2S)-1-((E)-4-(3-oxa-6-azabicyclo[3.1.1]heptan-6-yl)but-2-enoyl)-4-(7-(8-chloro-7-fluoronaphthalen-1-yl)-8-fluoro-2-(((2R,7aS)-2-fluorotetrahydro-1H-pyrrolizin-7a(5H)-yl)methoxy)pyrido[4,3-d]pyrimidin-4-yl)piperazin-2-yl)acetonitrile], for which the IC50 in assay [1] and in assay [2] was below 0.01 µM in each case.
